Counter-ions that a name gives are not always drawn.
Key:
[1] = Antimicrobial activity by analysis based on U.S. Pharmacopeia 28; details: dried vancomycin hydrochloride of Example 9
Protocol: (§1) Next, chilled absolute ethanol was added to the concentrate drop by drop until vancomycin hydrochloride was crystallized, the slurry was left in refrigerator for 12 hours to accelerate the crystallization, and then the slurry was filtered off. The filtered precipitate was dried in a vacuum dryer at 40° C. […] The analytical results are illustrated in FIG. 3 and FIG. 4.

[2] = Solubility of dried powder; type: physicochemical; details: dried vancomycin hydrochloride of Example 9
Protocol: as §1

**Q.** For CN[C@H](CC(C)C)C(=O)N[C@H]1C(=O)N[C@@H](CC(N)=O)C(=O)N[C@H]2C(=O)N[C@H]3C(=O)N[C@H](C(=O)N[C@H](C(=O)O)c4cc(O)cc(O)c4-c4cc3ccc4O)[C@H](O)c3ccc(c(Cl)c3)Oc3cc2cc(c3O[C@@H]2O[C@H](CO)[C@@H](O)[C@H](O)[C@H]2O[C@H]2C[C@](C)(N)[C@H](O)[C@H](C)O2)Oc2ccc(cc2Cl)[C@H]1O [vancomycin hydrochloride], which antimicrobial activity [1] is on record?
**A.** Its antimicrobial activity is 1050 U.

**Q.** What about the solubility of powder [2] of the same compound?
**A.** Its solubility of powder is “freely soluble”.
